{"source": "patent US20120087864A1", "about": "“METHOD FOR DIAGNOSING AND/OR EVALUATING RETINAL DISEASE” (R-TECH UENO, LTD., priority 2010, published 2012)", "assay_type_in_all_cases": "in vivo, human", "key": {"[1]": {"tested_on": "patient with retinal pigmentosa", "experiment": "Safety evaluation: side effects until completion of medication (24 weeks)", "from_the_text": "Safety evaluation (1. Adverse event, 2. Side effect, 3. Ophthalmologic examination, Vital signs, Clinical examination result)\nA list of items of the side effect confirmed until completion of medication (24 weeks) in Test Example 1, and the number of appearance cases and the appearance ratio of the side effect of each group are shown in Table 10."}, "[2]": {"tested_on": "patient with retinal pigmentosa", "experiment": "Humphrey visual field test, retinal sensitivity of central 2 degrees (4 points)", "settings": "0.15% solution twice a day", "description": "One drop or two drops of isopropyl unoprostone 0.15 w/v % ophthalmic solution per one time was administered to each eye of patient with retinal pigmentosa daily for 24 weeks, and the following items were examined. 112 patients participated this test.\nChange in retinal sensitivity of central 2 degrees (4 points) through Humphrey visual field test\nThe above ophthalmic solution of Formulation Example 1 was used as the test drug.\n(1) Dosage regimen: Instillation twice* a day, one drop of a first solution was instilled at the time of first instillation and, after 5 minute, one drop of a second solution was instilled into both eyes.\nBetween-group comparison of the change value of Humphrey central 4 points retinal sensitivity was made every measurement time point."}, "[3]": {"tested_on": "patient with retinal pigmentosa", "experiment": "Distribution of MP-1 central 2 degrees retinal sensitivity change by concentration of metabolite A in plasma (LC/MS/MS)", "settings": "instillation group", "description": "Concentration of drug in plasma (20 week after the initiation of test drug administration, the concentration of the drug in plasma after 15 minutes had passed since instillation of the second drop). Evaluate items: The concentration of isopropyl unoprostone and its metabolite A (free carboxylic acid of isopropyl unoprostone in plasma was measured.)\nTwenty weeks after the initiation of the test drug administration in Test Example 1, the concentration of the drug in plasma was measured after 15 minutes had passed since instillation of the second drop.\nEvaluation item: concentration of metabolite A (free carboxylic acid of isopropyl unoprostone) in plasma Measuring method: Twenty weeks after initiation of test drug administration, samples were obtained by drawing 4 ml of blood per time after 15 minutes had passed since instillation of the second drop, and then the concentration of the metabolite A in plasma was measured by liquid chromatogram/Tandem mass spectrometer (LC/MS/MS) using a portion of the measuring samples. Measuring apparatus: liquid chromatograph/Tandem mass spectrometer (LC/MS/MS) [High-performance liquid chromatography system (SHIMADZU 20A, manufactured by Shimadzu Corporation) Analysis column: Develosil ODS-UG-3 (2.0 mm I.D.×50 mm, 3 μm, manufactured by Nomura Chemical Co., Ltd.) Column temperature: 35° C. Injection amount: 20 μL Mobile phase A: acetonitrile/10 mmol/L ammonium acetate solution/acetic acid (20:80:0.1, v/v/v) Mobile phase B: acetonitrile/acetic acid (100:0.1, v/v) Needle wash: Methanol Flow rate: 0.25 mL/minute Mass spectrometry (API 4000, manufactured by Applied Biosystems)] Ionization method: ESI method (Turbo ion spray, 350° C.) […] Internal standard substance: 17,20-dimethyl PGF1α\nIn order to evaluate a correlation of the change value (24 weeks) of average retinal sensitivity by MP-1 in central 2 degrees (4 points) with the concentration of metabolite A in plasma of the isopropyl unoprostone instillation group, when the change value (24 weeks) of average retinal sensitivity by MP-1 in central 2 degrees (4 points) was a positive value, it was classified as “improvement”. In contrast, when the change value was zero and a negative value, it was classified as “non-improvement”. Furthermore, each concentration of metabolite A in plasma (1 ng/mL, 2 ng/mL, 2.5 ng/mL and 3 ng/mL) was regarded as a boundary concentration, distribution of the change value (24 weeks) by MP-1 in central 2 degrees (4 points) average retinal sensitivity was confirmed."}, "[4]": {"settings": "metabolite A in plasma 1.0 ng/mL or more"}, "[5]": {"settings": "metabolite A in plasma 2.0 ng/mL or more"}, "[6]": {"settings": "metabolite A in plasma 2.5 ng/mL or more"}, "[7]": {"settings": "metabolite A in plasma 3.0 ng/mL or more"}, "[8]": {"settings": "metabolite A in plasma less than 1.0 ng/mL"}, "[9]": {"settings": "metabolite A in plasma less than 2.0 ng/mL"}, "[10]": {"settings": "metabolite A in plasma less than 2.5 ng/mL"}, "[11]": {"settings": "metabolite A in plasma less than 3.0 ng/mL"}}, "note": "Where “and” joins values, the source holds several entries; their conditions need not be identical. Equal entries are not always repeated. Marks after values point to notes of the source that are not given here."}
{"smiles": "CCCCCCCC(=O)CC[C@@H]1[C@@H](C/C=C\\CCCC(=O)OC(C)C)[C@@H](O)C[C@H]1O", "note": "[isopropyl unoprostone, (+)-isopropyl (Z)-7-[(1R,2R,3R,5S)-3,5-dihydroxy-2-(3-oxodecyl)cyclopentyl]hept-5-enoate]", "values": [{"measurement": "serious side effect", "setting": "[1]; any group (one drop and two drops per time)", "result": "no serious side effect"}, {"measurement": "All side effects, number of appearance cases", "setting": "[1]; one drop per time (39 cases)", "result": "28 (71.8%) cases (%) and 28 (71.8) cases (%)"}, {"measurement": "Bloodshot eyes, number of appearance cases", "setting": "[1]; one drop per time (39 cases)", "result": "1 (2.6) cases (%)"}, {"measurement": "Bloodshot, number of appearance cases", "setting": "[1]; one drop per time (39 cases)", "result": "0 (0.0) cases (%)"}, {"measurement": "Dry eye, number of appearance cases", "setting": "[1]; one drop per time (39 cases)", "result": "1 (2.6) cases (%)"}, {"measurement": "Eye abnormality, number of appearance cases", "setting": "[1]; one drop per time (39 cases)", "result": "0 (0.0) cases (%)"}, {"measurement": "Eye irritation, number of appearance cases", "setting": "[1]; one drop per time (39 cases)", "result": "9 (23.1) cases (%)"}, {"measurement": "Eye pruritus, number of appearance cases", "setting": "[1]; one drop per time (39 cases)", "result": "1 (2.6) cases (%)"}, {"measurement": "Eye swelling, number of appearance cases", "setting": "[1]; one drop per time (39 cases)", "result": "1 (2.6) cases (%)"}, {"measurement": "Foreign body sensation, number of appearance cases", "setting": "[1]; one drop per time (39 cases)", "result": "1 (2.6) cases (%)"}, {"measurement": "Hypertrichosis, number of appearance cases", "setting": "[1]; one drop per time (39 cases)", "result": "0 (0.0) cases (%)"}, {"measurement": "Irritation of applied site, number of appearance cases", "setting": "[1]; one drop per time (39 cases)", "result": "13 (33.3) cases (%)"}, {"measurement": "Macular edema, number of appearance cases", "setting": "[1]; one drop per time (39 cases)", "result": "1 (2.6) cases (%)"}, {"measurement": "Macular hole, number of appearance cases", "setting": "[1]; one drop per time (39 cases)", "result": "0 (0.0) cases (%)"}, {"measurement": "Punctate keratitis, number of appearance cases", "setting": "[1]; one drop per time (39 cases)", "result": "4 (10.3) cases (%)"}, {"measurement": "All side effects, number of appearance cases", "setting": "[1]; two drops per time (38 cases)", "result": "21 (55.3%) cases (%) and 21 (55.3) cases (%)"}, {"measurement": "Bloodshot eyes, number of appearance cases", "setting": "[1]; two drops per time (38 cases)", "result": "0 (0.0) cases (%)"}, {"measurement": "Bloodshot, number of appearance cases", "setting": "[1]; two drops per time (38 cases)", "result": "1 (2.6) cases (%)"}, {"measurement": "Dry eye, number of appearance cases", "setting": "[1]; two drops per time (38 cases)", "result": "0 (0.0) cases (%)"}, {"measurement": "Eye abnormality, number of appearance cases", "setting": "[1]; two drops per time (38 cases)", "result": "1 (2.6) cases (%)"}, {"measurement": "Eye irritation, number of appearance cases", "setting": "[1]; two drops per time (38 cases)", "result": "4 (10.5) cases (%)"}, {"measurement": "Eye pruritus, number of appearance cases", "setting": "[1]; two drops per time (38 cases)", "result": "1 (2.6) cases (%)"}, {"measurement": "Eye swelling, number of appearance cases", "setting": "[1]; two drops per time (38 cases)", "result": "0 (0.0) cases (%)"}, {"measurement": "Foreign body sensation, number of appearance cases", "setting": "[1]; two drops per time (38 cases)", "result": "0 (0.0) cases (%)"}, {"measurement": "Hypertrichosis, number of appearance cases", "setting": "[1]; two drops per time (38 cases)", "result": "1 (2.6) cases (%)"}, {"measurement": "Irritation of applied site, number of appearance cases", "setting": "[1]; two drops per time (38 cases)", "result": "13 (34.2) cases (%)"}, {"measurement": "Macular edema, number of appearance cases", "setting": "[1]; two drops per time (38 cases)", "result": "0 (0.0) cases (%)"}, {"measurement": "Macular hole, number of appearance cases", "setting": "[1]; two drops per time (38 cases)", "result": "0 (0.0) cases (%)"}, {"measurement": "Punctate keratitis, number of appearance cases", "setting": "[1]; two drops per time (38 cases)", "result": "4 (10.5) cases (%)"}, {"measurement": "change value of Humphrey central 4 points retinal sensitivity", "setting": "[2]; one drop per time group, after 4 weeks", "result": "−0.178"}, {"measurement": "change value of Humphrey central 4 points retinal sensitivity", "setting": "[2]; one drop per time group, after 8 weeks", "result": 0.158}, {"measurement": "change value of Humphrey central 4 points retinal sensitivity", "setting": "[2]; one drop per time group, after 16 weeks", "result": 0.336}, {"measurement": "change value of Humphrey central 4 points retinal sensitivity", "setting": "[2]; one drop per time group, after 24 weeks", "result": 0.334}, {"measurement": "change value of Humphrey central 4 points retinal sensitivity", "setting": "[2]; two drops per time group, after 4 weeks", "result": 0.714}, {"measurement": "change value of Humphrey central 4 points retinal sensitivity", "setting": "[2]; two drops per time group, after 8 weeks", "result": 0.821}, {"measurement": "change value of Humphrey central 4 points retinal sensitivity", "setting": "[2]; two drops per time group, after 16 weeks", "result": "1.253*^†1"}, {"measurement": "change value of Humphrey central 4 points retinal sensitivity", "setting": "[2]; two drops per time group, after 24 weeks", "result": "2.009 and 2.009*^†1†2"}, {"measurement": "number of improved cases (MP-1 central 2 degrees change value, 24 weeks, positive)", "setting": "[3]; [4]", "result": 33}, {"measurement": "number of non-improved cases", "setting": "[3]; [4]", "result": 18}, {"measurement": "ratio of improved cases", "setting": "[3]; [4]", "result": "(64.7%)"}, {"measurement": "ratio of non-improved cases", "setting": "[3]; [4]", "result": "(35.3%)"}, {"measurement": "number of improved cases (MP-1 central 2 degrees change value, 24 weeks, positive)", "setting": "[3]; [5]", "result": 16}, {"measurement": "number of non-improved cases", "setting": "[3]; [5]", "result": 8}, {"measurement": "ratio of improved cases", "setting": "[3]; [5]", "result": "(66.7%)"}, {"measurement": "ratio of non-improved cases", "setting": "[3]; [5]", "result": "(33.3%)"}, {"measurement": "number of improved cases (MP-1 central 2 degrees change value, 24 weeks, positive)", "setting": "[3]; [6]", "result": 12}, {"measurement": "number of non-improved cases", "setting": "[3]; [6]", "result": 2}, {"measurement": "ratio of improved cases", "setting": "[3]; [6]", "result": "(85.7%)"}, {"measurement": "ratio of non-improved cases", "setting": "[3]; [6]", "result": "(14.3%)"}, {"measurement": "number of improved cases (MP-1 central 2 degrees change value, 24 weeks, positive)", "setting": "[3]; [7]", "result": 9}, {"measurement": "number of non-improved cases", "setting": "[3]; [7]", "result": 1}, {"measurement": "ratio of improved cases", "setting": "[3]; [7]", "result": "(90.0%)"}, {"measurement": "ratio of non-improved cases", "setting": "[3]; [7]", "result": "(10.0%)"}, {"measurement": "number of improved cases (MP-1 central 2 degrees change value, 24 weeks, positive)", "setting": "[3]; [8]", "result": 11}, {"measurement": "number of non-improved cases", "setting": "[3]; [8]", "result": 11}, {"measurement": "ratio of improved cases", "setting": "[3]; [8]", "result": "(50.0%)"}, {"measurement": "ratio of non-improved cases", "setting": "[3]; [8]", "result": "(50.0%)"}, {"measurement": "number of improved cases (MP-1 central 2 degrees change value, 24 weeks, positive)", "setting": "[3]; [9]", "result": 28}, {"measurement": "number of non-improved cases", "setting": "[3]; [9]", "result": 21}, {"measurement": "ratio of improved cases", "setting": "[3]; [9]", "result": "(57.1%)"}, {"measurement": "ratio of non-improved cases", "setting": "[3]; [9]", "result": "(42.9%)"}, {"measurement": "number of improved cases (MP-1 central 2 degrees change value, 24 weeks, positive)", "setting": "[3]; [10]", "result": 32}, {"measurement": "number of non-improved cases", "setting": "[3]; [10]", "result": 27}, {"measurement": "ratio of improved cases", "setting": "[3]; [10]", "result": "(54.2%)"}, {"measurement": "ratio of non-improved cases", "setting": "[3]; [10]", "result": "(45.8%)"}, {"measurement": "number of improved cases (MP-1 central 2 degrees change value, 24 weeks, positive)", "setting": "[3]; [11]", "result": 35}, {"measurement": "number of non-improved cases", "setting": "[3]; [11]", "result": 28}, {"measurement": "ratio of improved cases", "setting": "[3]; [11]", "result": "(55.6%)"}, {"measurement": "ratio of non-improved cases", "setting": "[3]; [11]", "result": "(44.4%)"}]}
